molecular target: T1, hT2R54 (Homo sapiens, UniProt P59534); assay: Cell-based assay for measuring hT2R54 inhibition (FLIPR calcium, Fluo4AM, acetaminophen as bitter agonist); settings: Table 2; cells stably expressing hT2R54 and a promiscuous G protein; read-out: hT2R54 IC50
T1 construct: expressed in transfected cells; it overexpresses a promiscuous G protein
T1 sequence (P59534 1-338): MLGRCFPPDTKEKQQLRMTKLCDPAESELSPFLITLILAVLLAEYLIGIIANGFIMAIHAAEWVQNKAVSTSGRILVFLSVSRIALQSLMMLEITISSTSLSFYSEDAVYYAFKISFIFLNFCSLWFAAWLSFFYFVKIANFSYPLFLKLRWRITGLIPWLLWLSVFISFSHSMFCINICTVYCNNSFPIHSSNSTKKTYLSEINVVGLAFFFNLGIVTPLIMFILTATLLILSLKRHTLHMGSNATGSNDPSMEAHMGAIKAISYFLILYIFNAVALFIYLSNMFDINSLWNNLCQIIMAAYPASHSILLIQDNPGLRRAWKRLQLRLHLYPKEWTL
Method: Cells stably expressing hT2R54 and a promiscuous G protein were seeded in 384 well plates 24 hours prior to the experiment. Cells were loaded with the calcium indicator Fluo4AM, washed and loaded in a FLIPR instrument with a compound plate containing increasing doses of acetaminophen in quadruplicates and prepared at 2× of final concentration. Baseline was recorded for 10 seconds, then 25 μl of […] was added onto 25 μl of cells and resulting changes in fluorescence were monitored over an additional 3 minutes. The host cell line overexpressing the G protein but not hT2R54 was treated as described above.
The ability of a test compound that blocks bitter taste elicited through hT2R54 was measured in this assay, as follows. Cells stably expressing hT2R54 and a promiscuous G protein were seeded in 384 well plates 24 hours prior to the experiment. Cells were loaded with the calcium indicator Fluo4AM, washed and loaded in a FLIPR instrument with a compound plate containing increasing doses of acetaminophen in buffer and increasing doses of acetaminophen with depicted fixed concentrations of Cmpd 109 (Table 4). Base line was recorded for 10 seconds, then 25 μl of compound and compound mixtures were added onto 25 μl of cells and resulting changes in fluorescence were monitored over an additional 3 minutes. The concentration of test compound that blocks half of the response when the bitter compound alone is present is presented as the EC50 or IC50 value.
In the examples above, the EC50 of compounds for blocking bitter taste elicited through T2R54 was measured in the same manner.

Row | Structure (SMILES) | IC50 [nM]
1 | CC(=O)c1cc2c(cc1NC(=O)CN1CCN(C(=O)Cc3cccs3)CC1)OCO2 [compound 65] | 30
2 | CC(=O)c1cc2c(cc1NC(=O)CN1CCN(C(=O)c3cnn(C)c3)CC1)OCO2 [compound 66] | 17
3 | CC(=O)c1cc2c(cc1NC(=O)CN1CCN(C(=O)c3ccc(C)s3)CC1)OCO2 [compound 67] | 15
4 | CC(=O)c1cc2c(cc1NC(=O)CN1CCN(C(=O)c3sccc3C)CC1)OCO2 [compound 68] | 30
5 | CC(=O)c1cc2c(cc1NC(=O)CN1CCN(C(=O)c3c(C)noc3C)CC1)OCO2 [compound 69] | 40
6 | CC(=O)c1cc2c(cc1NC(=O)CN1CCN(C(=O)c3ccn(C)n3)CC1)OCO2 [compound 71] | 50
7 | CC(=O)c1cc2c(cc1NC(=O)CN1CCN(C(=O)c3cnco3)CC1)OCO2 [compound 72] | 60
8 | CC(=O)c1cc2c(cc1NC(=O)CN1CCN(C(=O)c3cn(C)nc3C)CC1)OCO2 [compound 74] | 200
9 | CC(=O)c1cc2c(cc1NC(=O)CN1CCN(C(=O)c3cnon3)CC1)OCO2 [compound 75] | 100
10 | CC(=O)c1cc2c(cc1NC(=O)CN1CCN(C(=O)c3nc(C)oc3C)CC1)OCO2 [compound 76] | 70
11 | CC(=O)c1cc2c(cc1NC(=O)CN1CCN(C(=O)c3cn(C)nn3)CC1)OCO2 [compound 78] | 30
12 | CC(=O)c1cc2c(cc1NC(=O)CN1CCN(C(=O)c3ccoc3)CC1)OCO2 [compound 79] | 30
13 | CC(=O)c1cc2c(cc1NC(=O)CN1CCN(C(=O)c3ccc(C)o3)CC1)OCO2 [compound 81] | 4
14 | CCOC(=O)N1CCN(CC(=O)Nc2cc3c(cc2OC)OCO3)CC1 [compound 83] | 520
15 | COc1cc2c(cc1NC(=O)CN1CCN(C(=O)C3CCCO3)CC1)OCO2 (stereo not shown) [compound 85] | 1160
16 | COc1cc2c(cc1NC(=O)CN1CCN(C(=O)C3CCCCO3)CC1)OCO2 (stereo not shown) [compound 86] | 1140
17 | COc1cc2c(cc1NC(=O)CN1CCN(C(=O)CC3CCOCC3)CC1)OCO2 [compound 87] | 1040
18 | COc1cc2c(cc1NC(=O)CN1CCN(C(=O)c3ccco3)CC1)OCO2 [compound 88] | 130
19 | COc1cc2c(cc1NC(=O)CN1CCN(C(=O)c3ccccc3F)CC1)OCO2 [compound 90] | 200
20 | COc1cc2c(cc1NC(=O)CN1CCN(C(=O)c3ccccc3OC)CC1)OCO2 [compound 91] | 280
21 | COc1cc2c(cc1NC(=O)CN1CCN(C(=O)c3ccccn3)CC1)OCO2 [compound 94] | 1510
22 | COc1cc2c(cc1NC(=O)CN1CCN(C(=O)c3ccn(C)n3)CC1)OCO2 [compound 98] | 1080
23 | COc1ccccc1CC(=O)N1CCN(CC(=O)Nc2cc3c(cc2OC)OCO3)CC1 [compound 99] | 600
24 | COc1cc2c(cc1NC(=O)CN1CCN(C(=O)Cc3ccccc3O)CC1)OCO2 [compound 100] | 430

The remaining lines, values ahead:

Row | IC50 [nM] | Structure (SMILES)
25 | 20 | CC(=O)c1cc2c(cc1NC(=O)CN1CCN(C(=O)c3ccon3)CC1)OCO2 [compound 70]
26 | 80 | CC(=O)c1cc2c(cc1NC(=O)CN1CCN(C(=O)c3cc(C)cs3)CC1)OCO2 [compound 73]
27 | 30 | CC(=O)c1cc2c(cc1NC(=O)CN1CCN(C(=O)c3ccn(C)c3)CC1)OCO2 [compound 77]
28 | 500 | CC(=O)c1cc2c(cc1NC(=O)CN1CCN(C(=O)c3cc4ccccc4o3)CC1)OCO2 [compound 80]
29 | 540 | CCCCC(=O)N1CCN(CC(=O)Nc2cc3c(cc2OC)OCO3)CC1 [compound 82]
30 | 240 | CCCOC(=O)N1CCN(CC(=O)Nc2cc3c(cc2OC)OCO3)CC1 [compound 84]
31 | 80 | COc1cc2c(cc1NC(=O)CN1CCN(C(=O)c3ccc(C)o3)CC1)OCO2 [compound 89]
32 | 440 | COc1cc2c(cc1NC(=O)CN1CCN(C(=O)c3ccccc3O)CC1)OCO2 [compound 92]
33 | 430 | COc1cc2c(cc1NC(=O)CN1CCN(C(=O)c3cccc(O)c3)CC1)OCO2 [compound 93]
34 | 1340 | COc1cc2c(cc1NC(=O)CN1CCN(C(=O)c3cccnc3)CC1)OCO2 [compound 95]
35 | 1440 | COc1cc2c(cc1NC(=O)CN1CCN(C(=O)c3ccncc3)CC1)OCO2 [compound 96]
36 | < 1000 | COc1cc2c(cc1NC(=O)CN1CCN(C(=O)c3ccc(F)cc3)CC1)OCO2 [compound 97]

same assay, conditions: Table 3; cells stably expressing hT2R54 and a promiscuous G protein; read-out: hT2R54 IC50

Row | Structure (SMILES) | IC50 [nM]
37 | CC(=O)c1cc2c(cc1NC(=O)CN1CCN(Cc3ccccc3)CC1)OCO2 [compound 101, N-(6-acetylbenzo[d][1,3]dioxol-5-yl)-2-(4-benzylpiperazin-1-yl)acetamide] | 1060
38 | CC(=O)c1cc2c(cc1NC(=O)CN1CCN(Cc3ccccc3F)CC1)OCO2 [compound 102] | 500
39 | CC(=O)c1cc2c(cc1NC(=O)CN1CCN(Cc3cccc(F)c3)CC1)OCO2 [compound 103] | 500
40 | COc1ccc(F)cc1CN1CCN(CC(=O)Nc2cc3c(cc2C(C)=O)OCO3)CC1 [compound 105] | 90

The next lines start with the values.

Row | IC50 [nM] | Structure (SMILES)
41 | 600 | CC(=O)c1cc2c(cc1NC(=O)CN1CCN(Cc3ccc(F)cc3)CC1)OCO2 [compound 104]
42 | 300 | CC(=O)c1cc2c(cc1NC(=O)CN1CCN(Cc3ccccn3)CC1)OCO2 [compound 106]
43 | 4180 | CC(=O)c1cc2c(cc1NC(=O)CN1CCN(Cc3nc4ccccc4s3)CC1)OCO2 [compound 107]
44 | 1760 | CC(=O)c1cc2c(cc1NC(=O)CN1CCN(C(C(N)=O)c3ccccc3)CC1)OCO2 (stereo not shown) [compound 108]

same assay, conditions: Table 4; cells stably expressing hT2R54 and a promiscuous G protein; read-out: hT2R54 IC50

Row | Structure (SMILES) | IC50 [nM]
45 | CC(=O)c1cc2c(cc1NC(=O)CN1CCOCC1)OCO2 [compound 109, N-(6-acetylbenzo[d][1,3]dioxol-5-yl)-2-morpholinoacetamide] | 588
46 | CC(=O)c1cc2c(cc1NC(=O)C(C)N1CCOCC1)OCO2 (stereo not shown) [compound 110, N-(6-Acetylbenzo[d][1,3]dioxol-5-yl)-2-morpholinopropanamide] | 359
47 | CC(=O)c1cc2c(cc1NC(=O)C(C)(C)N1CCOCC1)OCO2 [compound 111, N-(6-Acetylbenzo[d][1,3]dioxol-5-yl)-2-methyl-2-morpholinopropanamide] | 207
48 | CCOC(=O)C1CCCCN1CC(=O)Nc1cc2c(cc1C(C)=O)OCO2 (stereo not shown) [compound 113, Ethyl 1-(2-((6-Acetylbenzo[d][1,3]dioxol-5-yl)amino)-2-oxoethyl)piperidine-2-carboxylate] | 78
49 | CCOC(=O)C1CCN(CC(=O)Nc2cc3c(cc2C(C)=O)OCO3)C1 (stereo not shown) [compound 114, Ethyl 1-(2-((6-acetylbenzo[d][1,3]dioxol-5-yl)amino)-2-oxoethyl)pyrrolidine-3-carboxylate] | 61
50 | CCOC(=O)C1CCCN(CC(=O)Nc2cc3c(cc2C(C)=O)OCO3)C1 (stereo not shown) [compound 115, Ethyl 1-(2-((6-Acetylbenzo[d][1,3]dioxol-5-yl)amino)-2-oxoethyl)piperidine-3-carboxylate] | 9
51 | CCOC(=O)C1CCCN(CC(=O)Nc2cc3c(cc2OC)OCO3)C1 (stereo not shown) [compound 117, Ethyl 1-(2-((6-Methoxybenzo[d][1,3]dioxol-5-yl)amino)-2-oxoethyl)piperidine-3-carboxylate] | 188
52 | CC(=O)c1cc2c(cc1NC(=O)CN1CC(C)OC(C)C1)OCO2 (stereo not shown) [compound 119] | 246
53 | CC(=O)c1cc2c(cc1NC(=O)CN1CCC(O)CC1)OCO2 [compound 120] | < 10
54 | COC1CCN(CC(=O)Nc2cc3c(cc2C(C)=O)OCO3)CC1 [compound 121] | 65
55 | COC1CCN(C(C)(C)C(=O)Nc2cc3c(cc2C(C)=O)OCO3)CC1 [compound 124] | 2140
56 | COC(=O)C1CCN(CC(=O)Nc2cc3c(cc2C(C)=O)OCO3)CC1 [compound 125] | 100

Continued, values first:

Row | IC50 [nM] | Structure (SMILES)
57 | 206 | CCOC(=O)[C@@H]1CCCN1CC(=O)Nc1cc2c(cc1C(C)=O)OCO2 [compound 112, Ethyl (2-((6-acetylbenzo[d][1,3]dioxol-5-yl)amino)-2-oxoethyl)-L-prolinate]
58 | 103 | CCOC(=O)C1CCN(CC(=O)Nc2cc3c(cc2C(C)=O)OCO3)CC1 [compound 116, Ethyl 1-(2-((6-acetylbenzo[d][1,3]dioxol-5-yl)amino)-2-oxoethyl)piperidine-4-carboxylate]
59 | 24 | CCOC(=O)C1CCCN(CC(=O)Nc2cc3c(cc2C(C)=O)OCCO3)C1 (stereo not shown) [compound 118, Ethyl 1-(2-((7-Acetyl-2,3-dihydrobenzo[b][1,4]dioxin-6-yl)amino)-2-oxoethyl)piperidine-3-carboxylate]
60 | < 20 | CC(=O)c1cc2c(cc1NC(=O)CN1CCCC(O)C1)OCO2 (stereo not shown) [compound 122]
61 | 2 | COC1CCCN(CC(=O)Nc2cc3c(cc2C(C)=O)OCO3)C1 (stereo not shown) [compound 123]

Source: patent US12295396B2, “Antagonists of T2R54 and compositions and uses thereof” (Firmenich Incorporated, priority 2018, dated 2025)
